Experimental data reported in patent publication US20240358672A1, “APPLICATION OF GENISTEIN AND ITS PHOSPHATE ESTER DERIVATIVE AND PHARMACEUTICAL COMPOSITION COMPRISING THE SAME” (National Taiwan University, priority 2023, published 2024).

Columns and labels:
hiPSC-ECs = experiment: qPCR gene expression in hiPSC-ECs; format: cell-based, human; conditions: 48 hours
[1] = tested on: engineered heart tissues (EHTs) composed of hiPSC-ECs and hiPSC-CMs; experiment: Engineered heart tissues (EHTs) contractility
Method: (§1) FIG. 8A to 8C illustrate the effects of genistein and Δ^9-THC on cardiac contraction in vivo or in vitro experiments according to Example 9. […] After treatment exposure, the contractility, relaxation and peak force of EHT were measured using the Sony imaging platform. FIG. 8B: Same as the former, analysis of heart rate and contraction-relaxation (CR) interval (48 hours). […] Mice were anesthetized with 1%-2% isoflurane, and images were acquired in the parasternal long-axis (PLA) and parasternal short axis (PSA) on a Visualsonic Vevo 2100 platform. The ventricular (LV) dimensions were traced offline, and the ejection fraction (EF) was calculated using Simpson's biplane method of discs.
(§2) The inventor used engineered heart tissues (EHTs) composed of hiPSC-ECs and hiPSC-derived cardiomyocytes (hiPSC-CMs) to interrogate the effects of genistein and Δ^9-THC on contractility in vitro.

C57BL/6J mice = experiment: Echocardiographic analysis of mice
Method: as §1, §2

[2] = tested on: LDL receptor knockout mice (B6.129S7-Ldlr^tm1Her/J); experiment: Chronic atherosclerosis in Ldlr−/− mice on high-fat diet; format: in vivo, mouse; conditions: HFD 12 weeks
Source text: FIG. 9A to 9E illustrate the effect of Δ^9-THC and genistein on the formation of chronic atherosclerosis according to Example 10. FIG. 9A: The body weights of Ldlr^−/− mice after exposure to (1) vehicle control (n=10), (2) Δ^9-THC (n=12), or (3) Δ^9-THC plus genistein (n=12). FIG. 9B: Lipid profiles of serum samples (left panel) and blood pressure (right panel) of Ldlr^−/− mice after exposure to (1) vehicle control (n=10 (left), n=3 (right)), (2) Δ^9-THC (n=12 (left), n=4 (right)), and (3) Δ^9-THC plus genistein (n=12 (left), n=4 (right)). The blood pressure was measured by tail-cuff. FIG. 9C: Oil red O staining of atherosclerotic plaques in cross-sections at the aortic root level (upper panel). Quantitation of atherosclerotic plaques: (1) vehicle control (n=10), (2) Δ^9-THC (n=10), and (3) Δ^9-THC plus genistein (n=11) (bottom panel). FIG. 9D: Gross images of oil red O stained Ldlr^−/− thoracic aorta are shown (left panel). Quantification of plaque size by en face analysis of thoracic aorta after exposure to (1) vehicle control (n=10), (2) Δ^9-THC (n=12), or (3) Δ^9-THC plus genistein (n=12). FIG. 9E: Immunostaining of CD68 in cross-sections at the aortic root level (upper panel). Quantitation of CD68-positive area from (1) vehicle control (n=10), (2) Δ^9-THC (n=9), and (3) Δ^9-THC plus genistein (n=10) (bottom panel).
In this part, In order to investigate the effect of Δ^9-THC and genistein in chronic atherosclerosis formation, LDL receptor knockout mice (B6.129S7-Ldlr^tm1Her/J) were fed a high-fat diet (HFD) for 12 weeks and treated with (1) vehicle control (n=10 to 12/group), (2) Δ^9-THC (n=10 to 12/group, administered Δ^9-THC 1 mg/kg), or (3) Δ^9-THC and genistein (n=10 to 12/group, administered Δ^9-THC 1 mg/kg plus genistein 50 mg/kg). […] After 12 weeks of HFD, the mice were euthanized, and the atherosclerotic lesion area was examined by cross-sections of the aortic root and an en face analysis of the thoracic aorta. […] Macrophage recruitment in the aortic root was analyzed using aortic plaque stained with an anti-CD68 antibody.

Apoe^−/− mice = experiment: Apoe−/− partial carotid artery ligation (PCAL) atherosclerosis model; format: in vivo, mouse; conditions: HFD 10 days
Source text: FIG. 10A to 10C illustrate the effects of Δ^9-THC and genistein on the treatment of atherosclerosis in vivo using the Apoe^−/− mouse model according to Example 10. FIG. 10A: Gross images of carotid arteries after oil red O staining are shown (left panel). The scale bar represents 1 mm. A diagram of partial ligation of the carotid artery is shown (right panel). […] The right subclavian artery (RSA), right common carotid artery (RCA), and left subclavian artery (LSA) were unligated and remained patent. FIG. 10B: Carotid artery sections were counterstained with hematoxylin and eosin (H&E), and a representative slide was presented with scale bars at 100 μm (left panel). Oil red O staining of atherosclerotic plaques in cross-section of mouse carotid artery with scale bar at 100 μm. The atherosclerotic plaques were quantified (right panel). FIG. 10C: Carotid artery sections were immunostained with an anti-F4/80 antibody. […] Quantification of F4/80-positive area within carotid artery sections (top right). Carotid artery sections were immunostained with an anti-CD68 antibody. […] Quantification of CD68-positive area within carotid artery sections is shown (bottom right).
Further, an Apoe^−/− mouse model was also employed to investigate the effects of Δ^9-THC and cotreatment with genistein on atherosclerosis. Partial carotid artery ligation (PCAL) was performed in Apoe^−/− mice at 10-16 weeks. […] All mice were fed a HFD for 10 days. At the end of the treatment protocol, the Apoe^−/− mice were euthanized and subjected to histological analysis. […] Macrophage recruitment was tested using the macrophage-specific F4/80 antibody and CD68 antibody. […] Consistent with the Ldlr^−/− model findings, the Apoe^−/− PCAL mouse model found increased plaque size and increased macrophage recruitment with Δ^9-THC, and genistein cotreatment ameliorated these indices of atherosclerosis in ligated carotid arteries.

[3] = 10 μM genistein with 5 μM Δ^9-THC
[4] = single agent: Δ^9-THC 1 mg/kg i.p. or genistein 50 mg/kg p.o.
[5] = Δ^9-THC 1 mg/kg plus genistein 50 mg/kg

O=c1c(-c2ccc(O)cc2)coc2cc(O)cc(O)c12 [genistein]
NOS2 and NOX1 expression (hiPSC-ECs; [3]): salutatory effect
Δ^9-THC-induced TLR4 expression (hiPSC-ECs; [3]): disrupted its expression
contraction, relaxation, and peak force of EHTs [1]: no significant effect
Δ^9-THC effects on beat rate and contraction-relaxation interval [1]: did not attenuate these effects
cardiac structure or function (EF, HR, LVEDV, LVEDM) (C57BL/6J mice; cotreatment Δ^9-THC 1 mg/kg i.p. and genistein 50 mg/kg p.o.): did not affect cardiac structure or function
cardiac structure or function (EF, HR, LVEDV, LVEDM) (C57BL/6J mice; [4]): did not affect cardiac structure or function
CD68-positive area in the aortic root [2, 5]: rescued
plaque formation, en face analysis of the thoracic aorta (oil red O) [2, 5]: improvement of plaque formation
plaque size, cross-sections of the aortic root [2, 5]: ameliorated plaque size
serum lipid profiles or blood pressure [2, 5]: Neither Δ^9-THC nor cotreatment with Δ^9-THC and genistein affected
CD68-positive area in ligated carotid artery (Apoe^−/− mice; [5]): reduced
F4/80-positive area in ligated carotid artery (Apoe^−/− mice; [5]): decreased
plaque size in ligated carotid artery (oil red O) (Apoe^−/− mice; [5]): ameliorated the plaque size

CCCCCc1cc(O)c2c(c1)OC(C)(C)[C@@H]1CCC(C)=C[C@@H]21 [Δ^9-THC, Δ^9-tetrahydrocannabinol]
TLR4 expression (hiPSC-ECs; 5 μM Δ^9-THC alone): induced TLR4 expression
expression of ROS-related genes NOX1 and NOS2 (hiPSC-ECs; 5 μM Δ^9-THC alone): upregulated
mRNA expression of antioxidant-related genes (SOD1, SOD2, CAT, GPX1) (hiPSC-ECs; 5 μM Δ^9-THC alone): decreased mRNA expression
expression of I kappa B (NFKBIA) (hiPSC-ECs; Δ^9-THC alone): inhibited
expression of proinflammatory cytokines and chemokines (hiPSC-ECs; Δ^9-THC alone): increased
beat rate of EHTs ([1]; 5 μM Δ^9-THC, 48 hours): decreased beat rate
contraction-relaxation interval of EHTs ([1]; 5 μM Δ^9-THC, 48 hours): increased the contraction-relaxation interval
cardiac structure or function (EF, HR, LVEDV, LVEDM) (C57BL/6J mice; [4]): did not affect cardiac structure or function
CD68-positive area in the aortic root ([2]; Δ^9-THC 1 mg/kg): significantly increased
plaque size, cross-sections of the aortic root ([2]; Δ^9-THC 1 mg/kg): significantly increased plaque size
serum lipid profiles or blood pressure ([2]; Δ^9-THC 1 mg/kg): Neither Δ^9-THC nor cotreatment with Δ^9-THC and genistein affected
CD68-positive area in ligated carotid artery (Apoe^−/− mice; Δ^9-THC 1 mg/kg): significantly increased
F4/80-positive area in ligated carotid artery (Apoe^−/− mice; Δ^9-THC 1 mg/kg): significantly increased
plaque area in ligated carotid artery (oil red O) (Apoe^−/− mice; Δ^9-THC 1 mg/kg): increased
